{
  "source": "patent US20240277715A1",
  "about": "“COMBINATION THERAPIES COMPRISING A METTL3 INHIBITOR AND A FURTHER ANTICANCER AGENT” (Storm Therapeutics Limited, priority 2021, published 2024)",
  "key": {"[1]": {"tested_on": "Kasumi1 AML cell line", "experiment": "AML cell viability, CellTiter-Glo combination matrix, Kasumi1", "assay_type": "cell-based", "settings": "for IC50: Homo sapiens, Kasumi 1, Kasumi1 cells", "experimental": "(§1) The sensitivity of AML cell lines to combinations of METTL3 inhibitor and standards of care was determined as described. Dose response curves of venetoclax were determined either alone or in the presence of different concentrations of METTL3 inhibitor that are known to be active in cells.\n(§2) Synergistic interactions occur when the IC50 value decreases in the presence of METTL3 inhibitor. […] Antagonistic interactions occur when the IC50 value increases in the presence of METTL3 inhibitor.\n(§3) 24 h before cell treatment, homogenize, stain with Trypan blue and count viable cells using CellOMeter Auto T4. Dilute cells in media at 400 000 cells/ml to ensure an exponential growth the day after.\n(§4) On treatment day, homogenize, stain with Trypan blue and count viable cells using CellOMeter Auto T4. Dilute to the proper cell seeding density according to Table 6 in cell media.\n(§5) • Dispense drug (see Table 7) and METTL3 inhibitor in semi-log dose-response matrix and DMSO in 384-well plates using D300e Nanodispenser (Tecan). • 6× compound solution preparation: add 40 μL of cell medium in compound-containing plates and homogenize using the ViaFlo device (Integra) • Dispense 30 μl of cell suspension per well in three replicate 384-well white Ultra-Low-Attachment plates (Sbio) using ViaFlow device (Integra) • Transfer 6 μL of the 6× compound solution in each 30 μL cell suspension-containing plate. • Incubate at 37° C. 5% CO2 for 3 to 5 days.\n(§6) • Add 35 μL CellTiter-Glo (Promega) in wells (vol/vol) using ViaFlo device (Integra). • Incubate at RT 10 min in the dark, with agitation the first minute, and read luminescence on the Ensight device (Perkin Elmer).\n(§7) Raw data were converted to % viability by normalization to DMSO controls. IC50 determination was performed using GraphPad Prism and fitting curves to the standard nonlinear regression four parameter equation (Y=Bottom+(Top-Bottom)/(1+(IC50/X)^HillSlope)) least squares method, and synergy was assessed by comparison of IC50 values of the standard of care in the presence or absence of different concentrations of METTL3 inhibitor (see FIGS. 12 to 19)."}, "[2]": {"tested_on": "AML", "settings": "cited from earlier work"}, "[3]": {"tested_on": "FLT3-mutant MOLM-14 AML cell line", "experiment": "AML cell viability, CellTiter-Glo combination matrix, MOLM-14", "assay_type": "cell-based", "experimental": "as §3, §4, §5, §6\nRaw data were converted to % viability by normalization to DMSO controls."}, "[4]": {"tested_on": "MOLM13 AML cell line", "experiment": "AML cell viability, CellTiter-Glo combination matrix, MOLM13", "assay_type": "cell-based", "settings": "for interaction with venetoclax: MOLM13 AML cell line", "experimental": "as §1, §2, §3, §4, §5, §6, §7"}, "[5]": {"tested_on": "SKOV3 human ovarian cancer cells", "experiment": "Tumour killing assay (TKA), SKOV3 spheroid / PBMC co-culture", "assay_type": "cell-based", "settings": "STM3480 0.05 micromolar, FIG. 1 and 2", "experimental": "This experiment evaluates the effects of human donor Peripheral Blood Mononuclear Cells (PBMCs) to attack and kill fluorescently-labelled tumour cells in a co-culture assay. Briefly, test agents are incubated at different concentrations with SKOV3 human ovarian cancer cells in the presence or absence of human donor PBMCs and tumour growth is monitored continuously by real time imaging of the NucLight Red-labelled SKOV3 cells for several days.\nNucLight Red (Incucyte, Essen Biosciences)-transduced SK-OV-3 (SK-OV-3-NLR) cells were transferred into Ultra-low attachment 96 well plates with spontaneous spheroid formation occurring over 48 hours. Peripheral blood mononuclear cells (PBMC) were isolated from healthy single donor buffy coats by density separation. Prior to co-culture of SK-OV-3-NLR spheroids with PBMC, SK-OV-3-NLR spheroids were treated with 10 ng/ml of interferon gamma (IFNγ). All treatments, including STM3480 and Pembrolizumab, were added at the point of co-culture in a final total volume of 200 μl/per well. Assay plates were transferred into an IncuCyte S3 and images were collected every 2 hours for 7 days. Following experimental completion, an analysis definition was applied to quantify the Total NLR Integrated Intensity present on a per well basis. Changes in spheroid size were quantified by plotting Total NLR Integrated Intensity against time."}, "[6]": {"settings": "Kasumi1, with increasing concentrations of STM3006"}, "[7]": {"settings": "Kasumi1, with increasing concentrations of STM3480"}},
  "note": "Like-named read-outs stand apart in the source and are kept apart here.",
  "data": [
    {"compound": "Nc1ncn([C@@H]2O[C@H](CO)[C@@H](O)[C@H]2O)c(=O)n1", "note": "[5′-azacitidine]", "values": [
      {"measurement": "change in IC50 of the standard of care", "setting": "[1]; [6]", "value": "No change"},
      {"measurement": "change in IC50 of the standard of care", "setting": "[1]; [7]", "value": "No change"}
    ]},
    {"compound": "O=C(NCc1cn2cc(CNCC3CCCCC3)ccc2n1)c1cc(=O)n2ccccc2n1", "note": "[STM2457]", "values": [
      {"measurement": "AML growth", "setting": "[2]", "value": "reduction"},
      {"measurement": "differentiation and apoptosis", "setting": "[2]", "value": "increase"}
    ]},
    {"compound": "CC1(C)CCN(Cc2ccc3nc(Cn4cc(-c5cc(Br)cc6[nH]ncc56)nn4)cn3c2)CC1", "note": "[STM3006, 6-bromo-4-[1-({6-[(4,4-dimethylpiperidin-1-yl)methyl]imidazo[1,2-a]pyridin-2-yl}methyl)-1H-1,2,3-triazol-4-yl]-1H-indazole]", "values": [
      {"measurement": "interaction with quizartinib", "setting": "[3]; FLT3-mutant MOLM-14 AML cell line", "value": "additive"},
      {"measurement": "cell viability with increasing concentrations of METTL3 inhibitor", "setting": "[3]; MOLM-14, combination with quizartinib", "value": "decreasing viability"},
      {"measurement": "interaction with venetoclax", "setting": "[4]", "value": "synergistic"},
      {"measurement": "cell viability with increasing concentrations of METTL3 inhibitor", "setting": "[1]; Kasumi1, combination with daunorubicin", "value": "decreasing viability"},
      {"measurement": "interaction with 5′-azacitidine", "setting": "[1]; Kasumi1 AML cell line", "value": "additive"},
      {"measurement": "interaction with cytarabine", "setting": "[1]; Kasumi1 AML cell line", "value": "additive"},
      {"measurement": "interaction with daunorubicin", "setting": "[1]; Kasumi1 AML cell line", "value": "additive"},
      {"measurement": "interaction with venetoclax", "setting": "[1]; Kasumi1 AML cell line", "value": "synergistic"}
    ]},
    {"compound": "O=C(NCc1ccc2cc(CNCC34CC(F)(C3)C4)[nH]c2c1)c1cc(=O)n2ccccc2n1", "note": "[STM3675, N-[(2-{[({3-fluorobicyclo[1.1.1]pentan-1-yl}methyl)amino]methyl}-1H-indol-6-yl)methyl]-4-oxo-4H-pyrido[1,2-a]pyrimidine-2-carboxamide]", "values": [
      {"measurement": "interaction with venetoclax", "setting": "[4]", "value": "synergistic"},
      {"measurement": "interaction with venetoclax", "setting": "[1]; Kasumi1 AML cell line", "value": "synergistic"}
    ]},
    {"compound": "Nc1ccn([C@@H]2O[C@H](CO)[C@@H](O)[C@@H]2O)c(=O)n1", "note": "[cytarabine]", "values": [
      {"measurement": "change in IC50 of the standard of care", "setting": "[1]; [6]", "value": "No change"},
      {"measurement": "change in IC50 of the standard of care", "setting": "[1]; [7]", "value": "No change"}
    ]},
    {"compound": "COc1cccc2c1C(=O)c1c(O)c3c(c(O)c1C2=O)C[C@@](O)(C(C)=O)C[C@@H]3O[C@H]1C[C@H](N)[C@H](O)[C@H](C)O1", "note": "[daunorubicin]", "values": [
      {"measurement": "change in IC50 of the standard of care", "setting": "[1]; [6]", "value": "No change"},
      {"measurement": "change in IC50 of the standard of care", "setting": "[1]; [7]", "value": "No change"}
    ]},
    {"compound": "CC1(C)CCC(CN2CCN(c3ccc(C(=O)NS(=O)(=O)c4ccc(NCC5CCOCC5)c([N+](=O)[O-])c4)c(Oc4cnc5[nH]ccc5c4)c3)CC2)=C(c2ccc(Cl)cc2)C1", "note": "[venetoclax, 4-{4-[(4′-chloro-5,5-dimethyl[3,4,5,6-tetrahydro[1,1′-biphenyl]]-2-yl)methyl]piperazin-1-yl}-N-(3-nitro-4-{[(oxan-4-yl)methyl]amino}benzene-1-sulfonyl)-2-[(1H-pyrrolo[2,3-b]pyridin-5-yl)oxy]benzamide]", "values": [
      {"measurement": "change in IC50 of the standard of care", "setting": "[4]; MOLM13, with increasing concentrations of STM3006", "value": "decreasing"},
      {"measurement": "change in IC50 of the standard of care", "setting": "[4]; MOLM13, with increasing concentrations of STM3480", "value": "decreasing"},
      {"measurement": "change in IC50 of the standard of care", "setting": "[4]; MOLM13, with increasing concentrations of STM3675", "value": "decreasing"},
      {"measurement": "IC50", "setting": "[1]; in the presence of 316.2 nM STM3480, read-out: venetoclax IC50", "value": 50.9, "unit": "nM"},
      {"measurement": "IC50", "setting": "[1]; in the presence of 1000 nM STM3480, read-out: venetoclax IC50", "value": 22.2, "unit": "nM"},
      {"measurement": "IC50", "setting": "[1]; venetoclax alone, read-out: IC50 of venetoclax", "value": 238, "unit": "nM"},
      {"measurement": "change in IC50 of the standard of care", "setting": "[1]; [6]", "value": "decreasing"},
      {"measurement": "change in IC50 of the standard of care", "setting": "[1]; [7]", "value": "decreasing"},
      {"measurement": "change in IC50 of the standard of care", "setting": "[1]; Kasumi1, with increasing concentrations of STM3675", "value": "decreasing"}
    ]},
    {"compound": "Pembrolizumab: anti-PD1 antibody [reference compound]", "values": [
      {"measurement": "tumour viability (normalized NucLight Red [NLR] fluorescence) against time", "setting": "[5]", "value": "greater decline in viable tumour cells"}
    ]}
  ]
}
